The target in assay [1] is T1, P2X purinoceptor 7 (Homo sapiens, UniProt Q99572).
T1 sequence (Q99572 whole entry): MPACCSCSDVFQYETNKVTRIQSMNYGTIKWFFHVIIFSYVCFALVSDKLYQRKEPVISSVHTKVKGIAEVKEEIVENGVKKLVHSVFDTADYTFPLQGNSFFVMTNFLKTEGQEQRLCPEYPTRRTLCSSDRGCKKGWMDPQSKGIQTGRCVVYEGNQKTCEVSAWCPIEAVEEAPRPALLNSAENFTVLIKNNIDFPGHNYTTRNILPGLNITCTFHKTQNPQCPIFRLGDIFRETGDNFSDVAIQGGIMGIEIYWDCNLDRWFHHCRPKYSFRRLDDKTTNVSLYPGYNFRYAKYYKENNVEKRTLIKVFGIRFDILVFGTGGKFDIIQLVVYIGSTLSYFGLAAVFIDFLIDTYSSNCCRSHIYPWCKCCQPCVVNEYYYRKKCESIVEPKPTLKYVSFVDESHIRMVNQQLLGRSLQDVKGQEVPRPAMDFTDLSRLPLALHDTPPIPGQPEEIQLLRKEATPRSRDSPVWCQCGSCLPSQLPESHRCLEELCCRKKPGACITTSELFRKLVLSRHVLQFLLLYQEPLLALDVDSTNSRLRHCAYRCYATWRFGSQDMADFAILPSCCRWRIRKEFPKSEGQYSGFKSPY
As to the kind of experiment: Antagonist activity at human P2X7 receptor expressed in HEK293 cells assessed as inhibition of BzATP-induced increase in fluorescence preincubated for 30 mins followed by BzATP addition and measured after 15 mins by YO-PRO-1 based inverted fluorescence microscopic analysis. The class given is cell-based.

The target in assay [2] is T2, P2X purinoceptor 7 (Homo sapiens) (UniProt Q99572).
T2 sequence (whole entry): T1 sequence (Q99572 whole entry)
As to the kind of experiment: Binding affinity to human P2X7 receptor expressed in HEK293 cell membrane assessed as inhibition of [125I]-4-(1-(1-(4-iodobenzoyl)piperidin-4-yl)-1H-imidazol-5-yl)phenyl isoquinoline-5-sulfonate binding to receptor at 1 uM incubated for 60 mins by high throughput screening relative to control. In kind it is cell membranes.

Assay [3] has as its target T1, P2X purinoceptor 7. The assay can be described thus: Binding affinity to human P2X7 receptor expressed in HEK293 cell membrane incubated for 60 mins in presence of [125I]-4-(1-(1-(4-iodobenzoyl)piperidin-4-yl)-1H-imidazol-5-yl)phenyl isoquinoline-5-sulfonate by competitive binding assay. In kind it is cell membranes.
Assay [4] has as its target T2, P2X purinoceptor 7 (Homo sapiens). As to the kind of experiment: Antagonist activity at human P2X7 receptor expressed in HEK293 cells assessed as inhibition of BzATP-induced increase in fluorescence at 1 uM preincubated for 30 mins followed by BzATP addition and measured after 15 mins by YO-PRO-1 based inverted fluorescence microscopic analysis. In kind it is cell-based. The following applies: filed as antagonist, time 45.0 min.

Assay [5] has the same target. The assay can be described thus: Antagonist activity at human P2X7 receptor expressed in HEK293 cells assessed as inhibition of BzATP-induced inward current at 300 nM preincubated with compound for 3 mins followed by BzATP addition by whole-cell voltage clamp method. In kind it is cell-based. The following applies: filed as antagonist. Details: scale not given: the % may be the effect or the level left.

Assay [6] shares this target. The assay can be described thus: Antagonist activity at human P2X7 receptor expressed in HEK293 cells assessed as inhibition of BzATP-induced inward current at 300 nM preincubated with compound for 3 mins followed by BzATP addition and measured after 25 mins of washout by whole-cell voltage clamp method. The class given is cell-based. As to conditions: filed as antagonist, time 28.0 min.

Assay [7] concerns the target T3, P2X purinoceptor 2 (Rattus norvegicus) (UniProt P49653).
T3 sequence (whole entry): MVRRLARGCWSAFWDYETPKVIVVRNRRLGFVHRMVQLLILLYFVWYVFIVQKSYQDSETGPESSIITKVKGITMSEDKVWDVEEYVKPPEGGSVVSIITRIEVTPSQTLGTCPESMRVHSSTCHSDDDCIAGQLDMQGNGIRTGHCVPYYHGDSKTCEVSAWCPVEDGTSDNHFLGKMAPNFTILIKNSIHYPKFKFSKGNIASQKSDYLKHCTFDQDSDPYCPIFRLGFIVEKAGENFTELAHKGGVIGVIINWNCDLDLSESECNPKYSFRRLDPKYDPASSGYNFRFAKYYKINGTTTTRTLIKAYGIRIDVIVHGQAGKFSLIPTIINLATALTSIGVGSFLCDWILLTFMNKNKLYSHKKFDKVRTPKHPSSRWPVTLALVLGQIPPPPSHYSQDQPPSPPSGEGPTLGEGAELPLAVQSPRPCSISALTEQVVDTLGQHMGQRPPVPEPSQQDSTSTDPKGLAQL
The assay can be described thus: Antagonist activity at rat P2X2 receptor expressed in HEK293 cells assessed as inhibition of BzATP-induced inward current at 1 uM by whole-cell voltage clamp method. The class given is cell-based.

Active and inactive are the calls of the source. The calls are words filed in the database; no cut-off is given here.

The term IC50 denotes the concentration that gives 50% inhibition. One may read the inhibition as the share of the control response that was lost under treatment. Regarding `O=C(NCc1cccc2cnccc12)c1cc(OCCF)ccc1Cl`, the IC50 at P2X purinoceptor 7 [1] is more than 1 µM. Moreover, the inhibition in assay [2] is less than 35%.
As for `O=C(c1ccc(Br)cc1)N1CCC(n2cncc2-c2ccc(OS(=O)(=O)c3cccc4cnccc34)cc2)CC1`, in assay [2] (filed as antagonist), the inhibition came out at 71%. Further, the IC50 on P2X purinoceptor 7 [3] turned out to be 0.00716 µM.
As to `COc1ccc(C(=O)Nc2ccc(Cl)c(C(=O)OCc3cccc4cnccc34)c2)nc1`, at P2X purinoceptor 7 [1], the IC50 was more than 1 µM. Moreover, the inhibition in assay [2] was less than 35%.
`O=C(c1ccc([N+](=O)[O-])cc1)N1CCC(n2cncc2-c2ccc(OS(=O)(=O)c3cccc4cnccc34)cc2)CC1`: the inhibition in assay [2] (filed as antagonist) was 74%. The IC50 at P2X purinoceptor 7 [3] is 0.00791 µM.
For `COc1ccc(Cl)c(C(=O)NNC(=O)c2cccc3ncccc23)c1`, the IC50 at P2X purinoceptor 7 [1] was more than 1 µM. In addition, the inhibition in assay [2] was less than 35%.
The matching figures for `COc1ccc(Cl)c(C(=O)NNC(=O)[C@H]2CC[C@H](C(F)(F)F)CC2)c1`: more than 1 µM and less than 35%.
The matching figures for `O=C(OCc1cccc2cnccc12)c1cc(NC(=O)[C@H]2CCCN2)ccc1Cl`: more than 1 µM and less than 35%.
With `O=C(NCc1cccc(C(F)(F)F)c1Cl)[C@@H]1CCC(=O)N1C/C=C/I`, the inhibition in assay [2] was 45%.
Take `O=C(c1ccc(I)cc1)N1CCC(n2cncc2-c2ccc(OS(=O)(=O)c3cccc4cnccc34)cc2)CC1`: the result in assay [4] and in assay [6] was Active. At P2X purinoceptor 7 [1], the IC50 worked out at 0.00025 µM. In assay [5], the Activity was 100%. For the same compound, in assay [7], the result was inactive. In addition, the inhibition in assay [2] (filed as antagonist) stood at 76%.
Take `COc1ccc(Cl)c(C(=O)NCc2cccc3cnccc23)c1`: at P2X purinoceptor 7 [1], the concentration for half-maximal inhibition (IC50) was more than 1 µM. The inhibition in assay [2] is less than 35%.
As to `NCC(=O)Nc1ccc(Cl)c(C(=O)OCc2cccc3cnccc23)c1`, on P2X purinoceptor 7 [1], the IC50 is more than 1 µM. For the same compound, the inhibition in assay [2] was less than 35%.
As to `CNCC(=O)Nc1ccc(Cl)c(C(=O)NCc2cccc3cnccc23)c1`, the IC50 at P2X purinoceptor 7 [1] is more than 1 µM. In assay [2], the inhibition is less than 35%.
In the same order, the values of `O=C(NCc1cccc2cnccc12)c1cc(O)ccc1Cl` are more than 1 µM and less than 35%.
Take `O=C1CNC(C(=O)Nc2ccc(Cl)c(C(=O)NCc3cccc4cnccc34)c2)CN1` (stereo unspecified): the IC50 at P2X purinoceptor 7 [1] was more than 1 µM. Besides, the inhibition in assay [2] was less than 35%.

For the origin of these results see ChEMBL document CHEMBL6078726, “Synthesis and in vitro evaluation of novel compounds and discovery of a promising iodine-125 radioligand for purinergic P2X7 receptor (P2X7R)” (Bioorg Med Chem, 2025).
